Source: patent US11242350B2, “Spirocyclic ROR-gamma modulators” (Escalier Biosciences B.V., priority 2018, dated 2022)

Target: RORγt (Homo sapiens (Human), UniProt P51449)
Test: Gal4 ligand binding assay (RORγt Gal fusion luciferase reporter assay in HEK293T cells)
Format: cell-based
Conditions: RORγt inverse agonists in RORγt Gal fusion assay
Protocol: The N-terminal DNA binding domains (DBD) of the native RORγ and RORγt receptors have been substituted with that of the yeast GAL4-DBD and stably transfected in HEK293T cells that also stably express luciferase under the regulation by upstream activation sequence of yeast Gal4. These cells constitutively express high level RORγ activity due to binding of endogenous co-factors. Both agonist and inverse agonist activity can be detected. The assay was performed according to kit manufacturer's instructions as follows. 10 mM compound stocks were diluted serially 1:3 with DMSO and further diluted with provided media to generate 10 titration points from 60 μM to 3 nM. These treatment conditions were added to the plates as 2× media in 100 μL volume. Each plate includes a positive control with 10 titration points as well as 6 negative control wells with vehicle only, with final DMSO concentration of 0.2%. RORγ reporter cells were rapidly thawed and added to the plates in 100 μL volume. The plates were incubated for 24 h in a 37° C. humidified 5% CO2 incubator. Media was removed before the addition of room temperature luciferous detection substrate. After 5 minute incubation, relative light units (RLUs) were quantified using a plate reading luminometer. Data was normalized to […] with only 0.2%0DMSO. Before establishing internal controls, ursolic acid was used as control.

Chain of RORγt (P51449 269-508): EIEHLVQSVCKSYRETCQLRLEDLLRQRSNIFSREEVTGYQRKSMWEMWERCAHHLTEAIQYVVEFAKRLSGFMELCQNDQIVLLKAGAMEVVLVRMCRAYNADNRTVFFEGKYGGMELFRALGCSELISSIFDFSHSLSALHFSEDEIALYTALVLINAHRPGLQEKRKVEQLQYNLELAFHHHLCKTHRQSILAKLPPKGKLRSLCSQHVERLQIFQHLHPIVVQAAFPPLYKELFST

SMILES	IC50 [nM]
CCc1cc(CN2CC3(C2)CN(S(C)(=O)=O)C3)cnc1-c1ccc(C(O)(C(F)(F)F)C(F)(F)F)cc1C [Example 62, 2-(4-(3-ethyl-5-((6-(methylsulfonyl)-2,6-diazaspiro[3.3]heptan-2-yl)methyl)pyridin-2-yl)-3-methylphenyl)-1,1,1,3,3,3-hexafluoropropan-2-ol]	50 to 250
CCc1cc(CN2CC3(C2)CN(S(C)(=O)=O)C3)ccc1-c1ccc(C(O)(C(F)(F)F)C(F)(F)F)cc1CC [Example 77, 2-(2,2′-diethyl-4′-((6-(methylsulfonyl)-2,6-diazaspiro[3.3]heptan-2-yl)methyl)-[1,1′-biphenyl]-4-yl)-1,1,1,3,3,3-hexafluoropropan-2-ol]	< 50
CCc1nc(CN2CC3(C2)CN(S(C)(=O)=O)C3)ccc1-c1ccc(C(O)(C(F)(F)F)C(F)(F)F)cc1C [Example 73, 2-(4-(2-ethyl-6-((6-(methylsulfonyl)-2,6-diazaspiro[3.3]heptan-2-yl)methyl)pyridin-3-yl)-3-methylphenyl)-1,1,1,3,3,3-hexafluoropropan-2-ol]	> 250
CCc1cc(CN2CC3(C2)CN(S(C)(=O)=O)C3)ncc1-c1ccc(C(O)(C(F)(F)F)C(F)(F)F)cc1 [Example 60, 2-(4-(4-ethyl-6-((6-(methylsulfonyl)-2,6-diazaspiro[3.3]heptan-2-yl)methyl)pyridin-3-yl)phenyl)-1,1,1,3,3,3-hexafluoropropan-2-ol]	< 50
CCc1cc(CN2CCC(CS(C)(=O)=O)CC2)ccc1-c1ccc(C(O)(C(F)(F)F)C(F)(F)F)cc1 [Example 9, 2-(2′-ethyl-4′-((4-((methylsulfonyl)methyl)piperidin-1-yl)methyl)-[1,1′-biphenyl]-4-yl)-1,1,1,3,3,3-hexafluoropropan-2-ol]	50 to 250
CCc1cc(CN2CC3(C2)CN(C(C)=O)C3)ccc1-c1ccc(C(O)(C(F)(F)F)C(F)(F)F)cc1 [Example 48, 1-(6-((2-ethyl-4′-(1,1,1,3,3,3-hexafluoro-2-hydroxypropan-2-yl)-[1,1′-biphenyl]-4-yl)methyl)-2,6-diazaspiro[3.3]heptan-2-yl)ethan-1-one]	> 250
CCc1cc(CN2CCC3(CCS(=O)(=O)C3)C2)ccc1-c1ccc(C(O)(C(F)(F)F)C(F)(F)F)cc1 (centres unmarked) [Example 58, 7-((2-ethyl-4′-(1,1,1,3,3,3-hexafluoro-2-hydroxypropan-2-yl)-[1,1′-biphenyl]-4-yl)methyl)-2-thia-7-azaspiro[4.4]nonane 2,2-dioxide]	< 50
CCc1cc(CN2CCC3(CCN(S(C)(=O)=O)C3)C2)ccc1-c1ccc(C(O)(C(F)(F)F)C(F)(F)F)cc1 (centres unmarked) [Example 31, 2-(2′-ethyl-4′-((7-(methylsulfonyl)-2,7-diazaspiro[4.4]nonan-2-yl)methyl)-[1,1′-biphenyl]-4-yl)-1,1,1,3,3,3-hexafluoropropan-2-ol]	< 50
CCc1cc(CN2CC3(C2)C[S+]([O-])C3)ccc1-c1ccc(C(O)(C(F)(F)F)C(F)(F)F)cc1 [Example 27, 6-((2-ethyl-4′-(1,1,1,3,3,3-hexafluoro-2-hydroxypropan-2-yl)-[1,1′-biphenyl]-4-yl)methyl)-2-thia-6-azaspiro[3.3]heptane 2-oxide]	50 to 250
CC(C)c1c(F)c(CN2CC3(C2)CN(S(C)(=O)=O)C3)cc(F)c1-c1ccc(C(O)(C(F)(F)F)C(F)(F)F)cc1 [Example 7, 2-(3′,6′-difluoro-2′-isopropyl-4′-((6-(methylsulfonyl)-2,6-diazaspiro[3.3]heptan-2-yl)methyl)-[1,1′-biphenyl]-4-yl)-1,1,1,3,3,3-hexafluoropropan-2-ol]	< 50
COc1cc(CN2CC3(C2)CN(S(C)(=O)=O)C3)ccc1-c1ccc(C(O)(C(F)(F)F)C(F)(F)F)cc1C [Example 57, 1,1,1,3,3,3-hexafluoro-2-(2′-methoxy-2-methyl-4′-((6-(methylsulfonyl)-2,6-diazaspiro[3.3]heptan-2-yl)methyl)-[1,1′-biphenyl]-4-yl)propan-2-ol]	< 50
CCc1cc(CN2CC3(C2)CN(S(C)(=O)=O)C3)c(F)cc1-c1ccc(C(O)(C(F)(F)F)C(F)(F)F)cc1Cl [Example 83, 2-(2-chloro-2′-ethyl-5′-fluoro-4′-((6-(methylsulfonyl)-2,6-diazaspiro[3.3]heptan-2-yl)methyl)-[1,1′-biphenyl]-4-yl)-1,1,1,3,3,3-hexafluoropropan-2-ol]	< 50
Cc1cc(C(O)(C(F)(F)F)C(F)(F)F)ccc1-c1cccc(N2CC3(C2)CN(S(C)(=O)=O)C3)c1C [Example 66, 2-(2,2′-dimethyl-3′-(6-(methylsulfonyl)-2,6-diazaspiro[3.3]heptan-2-yl)-[1,1′-biphenyl]-4-yl)-1,1,1,3,3,3-hexafluoropropan-2-ol]	50 to 250
CCc1cc(C(O)(C(F)(F)F)C(F)(F)F)ccc1-c1c(F)cc(CN2CC3(C2)CN(S(C)(=O)=O)C3)c(F)c1CC [Example 71, 2-(2,2′-diethyl-3′,6′-difluoro-4′-((6-(methylsulfonyl)-2,6-diazaspiro[3.3]heptan-2-yl)methyl)-[1,1′-biphenyl]-4-yl)-1,1,1,3,3,3-hexafluoropropan-2-ol]	< 50
CCc1cc(CN2CC(CN(C)S(C)(=O)=O)C2)ccc1-c1ccc(C(O)(C(F)(F)F)C(F)(F)F)cc1 [Example 29, N-((1-((2-ethyl-4′-(1,1,1,3,3,3-hexafluoro-2-hydroxypropan-2-yl)-[1,1′-biphenyl]-4-yl)methyl)azetidin-3-yl)methyl)-N-methylmethanesulfonamide]	> 250
Cc1cc(C(O)(C(F)(F)F)C(F)(F)F)ccc1-c1c(F)cc(CN2CC3(C2)CN(S(C)(=O)=O)C3)c(F)c1C1CC1 [Example 89, 2-(2′-cyclopropyl-3′,6′-difluoro-2-methyl-4′-((6-(methylsulfonyl)-2,6-diazaspiro[3.3]heptan-2-yl)methyl)-[1,1′-biphenyl]-4-yl)-1,1,1,3,3,3-hexafluoropropan-2-ol]	< 50
CC(=O)N1CC2(CN(Cc3ccc(-c4ccc(C(O)(C(F)(F)F)C(F)(F)F)cc4)c(C)c3)C2)C1 [Example 49, 1-(6-((4′-(1,1,1,3,3,3-hexafluoro-2-hydroxypropan-2-yl)-2-methyl-[1,1′-biphenyl]-4-yl)methyl)-2,6-diazaspiro[3.3]heptan-2-yl)ethan-1-one]	> 250

Further lines, results first:

IC50 [nM]	SMILES
50 to 250	Cc1cc(C(O)(C(F)(F)F)C(F)(F)F)ccc1-c1ccc(CN2CC3(C2)CS(=O)(=O)C3)cc1C(C)C [Example 12, 6-((4′-(1,1,1,3,3,3-hexafluoro-2-hydroxypropan-2-yl)-2-isopropyl-2′-methyl-[1,1′-biphenyl]-4-yl)methyl)-2-thia-6-azaspiro[3.3]heptane 2,2-dioxide]
< 50	CCc1cc(CN2CCCC3(C2)CN(S(C)(=O)=O)C3)ccc1-c1ccc(C(O)(C(F)(F)F)C(F)(F)F)cc1 [Example 5, 2-(2′-ethyl-4′-((2-(methylsulfonyl)-2,6-diazaspiro[3.5]nonan-6-yl)methyl)-[1,1′-biphenyl]-4-yl)-1,1,1,3,3,3-hexafluoropropan-2-ol]
< 50	CCc1cc(CN2CCC3(CC2)CN(S(C)(=O)=O)C3)ccc1-c1ccc(C(O)(C(F)(F)F)C(F)(F)F)cc1 [Example 4, 2-(2′-ethyl-4′-((2-(methylsulfonyl)-2,7-diazaspiro[3.5]nonan-7-yl)methyl)-[1,1′-biphenyl]-4-yl)-1,1,1,3,3,3-hexafluoropropan-2-ol]
< 50	CCc1cc(CN2CC3(C2)CN(S(C)(=O)=O)C3)ccc1-c1ccc(C(O)(C(F)(F)F)C(F)(F)F)cc1C#N [Example 65, 2′-ethyl-4-(1,1,1,3,3,3-hexafluoro-2-hydroxypropan-2-yl)-4′-((6-(methylsulfonyl)-2,6-diazaspiro[3.3]heptan-2-yl)methyl)-[1,1′-biphenyl]-2-carbonitrile]
< 50	CC(C)c1cc(CN2CC3(C2)CN(S(C)(=O)=O)C3)c(F)cc1-c1ccc(C(O)(C(F)(F)F)C(F)(F)F)cc1F [Example 80, 2-(2,5′-difluoro-2′-isopropyl-4′-((6-(methylsulfonyl)-2,6-diazaspiro[3.3]heptan-2-yl)methyl)-[1,1′-biphenyl]-4-yl)-1,1,1,3,3,3-hexafluoropropan-2-ol]
> 250	CCc1cc(CN2CC(CNS(C)(=O)=O)C2)ccc1-c1ccc(C(O)(C(F)(F)F)C(F)(F)F)cc1 [Example 32, N-((1-((2-ethyl-4′-(1,1,1,3,3,3-hexafluoro-2-hydroxypropan-2-yl)-[1,1′-biphenyl]-4-yl)methyl)azetidin-3-yl)methyl)methanesulfonamide]
< 50	CC(C)c1cc(CN2CC3(C2)CN(S(C)(=O)=O)C3)c(F)cc1-c1ccc(C(O)(C(F)(F)F)C(F)(F)F)cc1 [Example 78, 1,1,1,3,3,3-hexafluoro-2-(5′-fluoro-2′-isopropyl-4′-((6-(methylsulfonyl)-2,6-diazaspiro[3.3]heptan-2-yl)methyl)-[1,1′-biphenyl]-4-yl)propan-2-ol]
50 to 250	CCc1cc(CN2CC3(CCN(S(C)(=O)=O)CC3)C2)ccc1-c1ccc(C(O)(C(F)(F)F)C(F)(F)F)cc1 [Example 33, 2-(2′-ethyl-4′-((7-(methylsulfonyl)-2,7-diazaspiro[3.5]nonan-2-yl)methyl)-[1,1′-biphenyl]-4-yl)-1,1,1,3,3,3-hexafluoropropan-2-ol]
< 50	CC(C)c1cc(CN2CC3(C2)CN(S(C)(=O)=O)C3)ccc1-c1ccc(C(O)(C(F)(F)F)C(F)(F)F)cc1 [Example 43, 1,1,1,3,3,3-hexafluoro-2-(2′-isopropyl-4′-((6-(methylsulfonyl)-2,6-diazaspiro[3.3]heptan-2-yl)methyl)-[1,1′-biphenyl]-4-yl)propan-2-ol]
